System: rabbit patellar tendon specimen
Assay: post-denaturation tension test (stiffness) of heat-contracted tendon specimens treated with cross-linking agent
Design: species or system New Zealand rabbit
Conditions: FIG. 7; for stiffness increase when compared to a control without the cross-linking: then 0.1% glutaraldehyde for 15 minutes
Protocol: The achieve the above objectives, the present invention provides an in vitro testing system for developing procedures for treating joint instability problems and loose skin problems. In particular, the testing system performs a tensile test, which is a test wherein a constant rate of elongation is applied on the specimen and the resultant load is measured by a load cell; a viscoelasticity test, which is a test to determine the viscoelastic properties of the specimen; and, calculates stiffness which is the slope of elongation versus load graph. The testing system 110 is illustrated in FIG. 4 and consists of a hydrothermy cabin 120 that is attached to a universal testing machine 130, which is used to perform isothermal and isotonic heating of specimens. The hydrothermy cabin 120 provides a chamber which allows fluid to be circulated around all surfaces of specimen 123 held in between lower grip 124 and upper grip 125. Specimen 123 is secured to lower grip 124 using a fixture which is designed to keep specimen 123 at an angle to mimic anatomical loading while compensating for the offset created by the angle so as to ensure a straight line of loading. Specimen 123 is secured to upper grip 125 by a wedge-shaped fixture which is composed of two universal joints to give rotational freedom to specimen 123 to ensure that a purely uniaxial stress is created on specimen 123. The denaturation of the collagen in specimen 123 is produced by providing to hydrothermy cabin 120 high temperature saline solution 150 contained in reservoir 151 by means of high temperature saline solution supply line 152. […] The materials testing machine 130 performs a tensile test wherein a constant rate of eleongation is applied to specimen 123 and the resultant load is measured by a load cell (not shown); a viscoelasticity test wherein a constant load is applied on specimen 123 and the resultant elongation as a function of time is measured (creep test) or a constant elongation is imposed and the resulting load is measured (stress relaxation test) as a function of time. […]

Structure (SMILES): O=CCCCC=O [glutaraldehyde]
- stiffness of the specimen (15 minutes of 0.1% glutaraldehyde following heat treatment of either 75° C. or 80° C.): increased
- stiffness increase when compared to a control without the cross-linking (heat treatment 75° C., 0.5 MPa load): more than 220%
- stiffness increase when compared to a control without the cross-linking (heat treatment 80° C., 0.6 MPa load): more than 130%

Reference: US6375672B1, “Method for controlling the chemical and heat induced responses of collagenous materials” (Board of Trustees of Michigan State University, priority 1999, dated 2002)
